Consider 16 compounds from US8124624B2, “Substituted sulfonamide compounds” (Gruenenthal GmbH, priority 2008, dated 2012).

For one assay, the target named is T1, B1R of the rat (Rattus norvegicus, UniProt P97583).
T1 construct: expressed in transfected cells; host or cells: CHO K1 cells (rB1R cells)
T1 sequence (P97583 1-337): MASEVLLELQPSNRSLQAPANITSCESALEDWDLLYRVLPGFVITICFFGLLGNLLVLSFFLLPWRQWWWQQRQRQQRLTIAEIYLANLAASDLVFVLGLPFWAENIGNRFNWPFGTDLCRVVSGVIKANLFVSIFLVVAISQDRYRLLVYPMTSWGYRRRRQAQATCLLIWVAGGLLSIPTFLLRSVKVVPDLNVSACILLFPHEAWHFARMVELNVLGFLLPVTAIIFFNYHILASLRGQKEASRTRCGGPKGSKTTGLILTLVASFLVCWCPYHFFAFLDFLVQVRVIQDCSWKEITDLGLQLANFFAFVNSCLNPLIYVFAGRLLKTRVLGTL
In words: FLIPR Ca2+ influx assay, B1R antagonism, rat (rB1R CHO K1 cells). The format is cell-based. The conditions noted are these: test substance 10 μM; CHO K1 cells stably transfected with rat B1R; agonist Des-Arg9-bradykinin at EC80; % inhibition compared with maximum achievable inhibition. Here is the method: The agonistic or antagonistic action of substances can be quantified on the bradykinin receptor 1 (B1R) of the species human and rat using ectopically expressing cell lines (CHO K1 cells) and with the aid of a Ca^2+-sensitive dye (Fluo-4) using a fluorescent imaging plate reader (FLIPR). The indication in % activation is based on the Ca^2+ signal after addition of Lys-Des-Arg^9-bradykinin (0.5 nM) or Des-Arg^9-bradykinin (100 nM). Antagonists lead to suppression of the Ca^2+ influx after the addition of the agonist. % Inhibition compared with the maximum achievable inhibition is indicated.
The agonistic or antagonistic action of substances can be determined on the bradykinin receptor 1 (B1R) of the species human and rat using the following assay. According to this assay, the Ca^2+ influx through the channel is quantified with the aid of a Ca^2+-sensitive dye (Fluo-4 type, Molecular Probes Europe BV, Leiden, Netherlands) using a Fluorescent Imaging Plate Reader (FLIPR, Molecular Devices, Sunnyvale, USA).
Chinese hamster ovary cells (CHO K1 cells) which have been stably transfected with the human B1R gene (hB1R cells) or with the B1R gene of the rat (rB1R cells) are used. For functional studies, the cells are plated out on black 96-well plates having a clear base (BD Biosciences, Heidelberg, Germany or Greiner, Frickenhausen, Germany) in a density of 20,000-35,000 cells/well. The cells are incubated overnight at 37° C. and with 5% CO2 in culture medium (hB1R cells: Nutrient Mixture Ham's F12, Gibco Invitrogen GmbH, Karlsruhe, Germany or DMEM, Sigma-Aldrich, Taufkirchen, Germany; rB1R cells: D-MEM/F12, Gibco Invitrogen GmbH, Karlsruhe, Germany), with 10 vol. % FBS (fetal bovine serum, Gibco Invitrogen GmbH, Karlsruhe, Germany or PAN Biotech GmbH, Aidenbach, Germany).
On the following day, the cells are loaded for 60 minutes at 37° C. with 2.13 μM Fluo-4 (Molecular Probes Europe BV, Leiden, Netherlands) in HBSS buffer (Hank's buffered saline solution, Gibco Invitrogen GmbH, Karlsruhe, Germany) […] (Sigma-Aldrich, Taufkirchen, Germany) and 10 mM HEPES (Sigma-Aldrich, Taufkirchen, Germany). The plates are then washed twice with HBSS buffer, and HBSS buffer additionally containing 0.1% BSA (bovine serum albumin; Sigma-Aldrich, Taufkirchen, Germany), 5.6 mM glucose and 0.05% gelatin (Merck KGaA, Darmstadt, Germany) is added to the plates. After incubation for a further 20 minutes at room temperature, the plates are inserted into the FLIPR for Ca^2+ measurement.
Alternatively, washing is carried out with buffer A (15 mM HEPES, 80 mM NaCl, 5 mM KCl, 1.2 mM CaCl2, 0.7 mM MgSO4, 2 g/l glucose, 2.5 mM probenecid) followed by loading with buffer A with added 2.5 μM Fluo-4 and 0.025% Pluronic F127 (Sigma-Aldrich, Taufkirchen, Germany). The cells are then washed twice with buffer A and incubated for 30 minutes at room temperature with buffer A additionally containing 0.05% BSA and 0.05% gelatin and are then inserted into the FLIPR for Ca^2+ measurement.
The Ca^2+-dependent fluorescence is measured before and after the addition of substances (λex=488 nm, λem=540 nm). Quantification is carried out by measuring the highest fluorescence intensity (FC, fluorescence counts) over time.
The FLIPR protocol consists of two substance additions. Test substances (10 μM) are first pipetted onto the cells and the Ca^2+ influx is compared with the control (hB1R: Lys-Des-Arg^9-bradykinin >=50 nM; rB1R: Des-Arg^9-bradykinin 10 μM). This gives the activation in %, based on the Ca^2+ signal after addition of Lys-Des-Arg^9-bradykinin (>=50 nM) or Des-Arg^9-bradykinin (10 μM). After 10-20 minutes' incubation, Lys-Des-Arg^9-bradykinin (hB1R) or Des-Arg^9-bradykinin (rB1R) is applied in the concentration of the EC80, and the influx of Ca^2+ is likewise determined. Antagonists lead to suppression of the Ca^2+ influx. The % inhibition compared with the maximum achievable inhibition is calculated. […]
Regarding `COc1cc(C)c(S(=O)(=O)N(CCOCC(=O)N2CCC(CCCN3CCCC3)(c3ccncc3)CC2)Cc2ccccc2)c(C)c1` [Example 40, N-Benzyl-4-Methoxy-2,6-dimethyl-N-[2-[2-oxo-2-[4-pyridin-4-yl-4-(3-pyrrolidin-1-yl-propyl)-piperidin-1-yl]-ethoxy]-ethyl]-benzenesulfonic acid amide], the “B1R antagonism, rat [10 μM] % inhibition” value amounted to 100%.

Turning to `O=C(COCC1CCCCN1S(=O)(=O)c1ccccc1C(F)(F)F)N1CCC(CCCN2CCCC2)(c2ccncc2)CC1` (stereo not shown) [Example 44, 1-[4-Pyridin-4-yl-4-(3-pyrrolidin-1-yl-propyl)-piperidin-1-yl]-2-[[1-[[2-(trifluoromethyl)-phenyl]sulfonyl]-piperidin-2-yl]-methoxy]-ethanone], the “B1R antagonism, rat [10 μM] % inhibition” value was found to be 100%.

For the compound `COc1cc(C)c(S(=O)(=O)N2CCCCC2CCOCC(=O)N2CCC(CCCN3CCCC3)(c3cccnc3)CC2)c(C)c1` (stereo not shown) [Example 46, 2-[2-[1-[(4-Methoxy-2,6-dimethyl-phenyl)sulfonyl]-piperidin-2-yl]-ethoxy]-1-[4-pyridin-3-yl-4-(3-pyrrolidin-1-yl-propyl)-piperidin-1-yl]-ethanone], the “B1R antagonism, rat [10 μM] % inhibition” value is on record as 101%.

On to `O=C(COCC1CCc2ccccc2N1S(=O)(=O)c1ccc2ccccc2c1)N1CCC(CCCN2CCCC2)(c2cccnc2)CC1` (stereo not shown) [Example 52, 2-[[1-(Naphthalen-2-ylsulfonyl)-1,2,3,4-tetrahydro-quinolin-2-yl]-methoxy]-1-[4-pyridin-3-yl-4-(3-pyrrolidin-1-yl-propyl)-piperidin-1-yl]-ethanone], for which the “B1R antagonism, rat [10 μM] % inhibition” value is on record as 83%.

The assay is the same for the next values; noted with them: test substance 10 μM; CHO K1 cells stably transfected with rat B1R; agonist Des-Arg9-bradykinin at EC80; % inhibition compared with maximum achievable inhibition; read-out: B1R antagonism, rat [10 μM] % inhibition.
`COc1cc(C)c(S(=O)(=O)N2CCCCC2COCC(=O)N2CCC(CCCN3CCCC3)(c3ccncc3)CC2)c(C)c1` (stereo not shown) [Example 28, 2-[[1-[(4-Methoxy-2,6-dimethyl-phenyl)sulfonyl]-piperidin-2-yl]-methoxy]-1-[4-pyridin-4-yl-4-(3-pyrrolidin-1-yl-propyl)-piperidin-1-yl]-ethanone]: the inhibition – broadly, the change of the read-out against control, counted positive when it falls – at 10 µM stood at 97%.

On to `COc1cc(C)c(S(=O)(=O)N(C)CCOCC(=O)N2CCC(CCCN3CCCC3)(c3ccncc3)CC2)c(C)c1` [Example 30, 4-Methoxy-N,2,6-trimethyl-N-[2-[2-oxo-2-[4-pyridin-4-yl-4-(3-pyrrolidin-1-yl-propyl)-piperidin-1-yl]-ethoxy]-ethyl]-benzenesulfonic acid amide], for which the inhibition at 10 µM was determined as 100%.

`COc1cc(C)c(S(=O)(=O)N(C)CCOCC(=O)N2CCC(CCCN3CCCC3)(c3ccncc3)CC2)c(C)c1C` [Example 32, 4-Methoxy-N,2,3,6-tetramethyl-N-[2-[2-oxo-2-[4-pyridin-4-yl-4-(3-pyrrolidin-1-yl-propyl)-piperidin-1-yl]-ethoxy]-ethyl]-benzenesulfonic acid amide]: the inhibition at 10 µM came out at 100%.

In the case of `COc1cc(C)c(S(=O)(=O)N(CCOCC(=O)N2CCC(CCCN3CCCC3)(c3ccncc3)CC2)Cc2ccccc2)c(C)c1` [Example 39, N-Benzyl-4-Methoxy-2,6-dimethyl-N-[2-[2-oxo-2-[4-pyridin-4-yl-4-(3-pyrrolidin-1-yl-propyl)-piperidin-1-yl]-ethoxy]-ethyl]-benzenesulfonic acid amide], the inhibition at 10 µM was 99%.

On to `O=C(COCC1CCCCN1S(=O)(=O)c1ccccc1C(F)(F)F)N1CCC(CCCN2CCCC2)(c2ccncc2)CC1` (stereo not shown) [Example 43, 1-[4-Pyridin-4-yl-4-(3-pyrrolidin-1-yl-propyl)-piperidin-1-yl]-2-[[1-[[2-(trifluoromethyl)-phenyl]sulfonyl]-piperidin-2-yl]-methoxy]-ethanone], for which the inhibition at 10 µM was determined as 101%.

Take `COc1cc(C)c(S(=O)(=O)N2CCCCC2CCOCC(=O)N2CCC(CCCN3CCCC3)(c3cccnc3)CC2)c(C)c1` (stereo not shown) [Example 45, 2-[2-[1-[(4-Methoxy-2,6-dimethyl-phenyl)sulfonyl]-piperidin-2-yl]-ethoxy]-1-[4-pyridin-3-yl-4-(3-pyrrolidin-1-yl-propyl)-piperidin-1-yl]-ethanone]: the inhibition at 10 µM was 100%.

On to `CN(CCCC(=O)N1CCC(CCCN2CCCC2)(c2cccnc2)CC1)S(=O)(=O)c1cccc(C(F)(F)F)c1` [Example 47, N-Methyl-N-[4-Oxo-4-[4-pyridin-3-yl-4-(3-pyrrolidin-1-yl-propyl)-piperidin-1-yl]-butyl]-3-(trifluoromethyl)-benzenesulfonic acid amide], for which the inhibition at 10 µM worked out at 53%.

Consider `COc1cc(C)c(S(=O)(=O)N(CCOCC(=O)N2CCC(CCCN3CCCC3)(c3ccncc3)CC2)c2ccccc2)c(C)c1` [Example 50, 4-Methoxy-2,6-Dimethyl-N-[2-[2-oxo-2-[4-pyridin-4-yl-4-(3-pyrrolidin-1-yl-propyl)-piperidin-1-yl]-ethoxy]-ethyl]-N-phenyl-benzenesulfonic acid amide], for which the inhibition at 10 µM amounted to 100%.

Take `O=C(COCC1CCc2ccccc2N1S(=O)(=O)c1ccc2ccccc2c1)N1CCC(CCCN2CCCC2)(c2cccnc2)CC1` (stereo not shown) [Example 51, 2-[[1-(Naphthalen-2-ylsulfonyl)-1,2,3,4-tetrahydro-quinolin-2-yl]-methoxy]-1-[4-pyridin-3-yl-4-(3-pyrrolidin-1-yl-propyl)-piperidin-1-yl]-ethanone]: the inhibition at 10 µM turned out to be 80%.

On to `COc1cc(C)c(S(=O)(=O)N2c3ccccc3CCC2COCC(=O)N2CCC(CCCN3CCCC3)(c3ccncc3)CC2)c(C)c1` (stereo not shown) [Example 55, 2-[[1-[(4-Methoxy-2,6-dimethyl-phenyl)sulfonyl]-1,2,3,4-tetrahydro-quinolin-2-yl]-methoxy]-1-[4-pyridin-4-yl-4-(3-pyrrolidin-1-yl-propyl)-piperidin-1-yl]-ethanone], for which the inhibition at 10 µM worked out at 98%.

Regarding `Cc1cccc(Cl)c1S(=O)(=O)N1CCCCC1CCCC(=O)N1CCC(CCCN2CCCC2)(c2ccncc2)CC1` (stereo not shown) [Example 56, 4-[1-[(2-Chloro-6-methyl-phenyl)sulfonyl]-piperidin-2-yl]-1-[4-pyridin-4-yl-4-(3-pyrrolidin-1-yl-propyl)-piperidin-1-yl]-butan-1-one], the inhibition at 10 µM stood at 97%.

On to `O=C(CCCC1CCCCN1S(=O)(=O)c1ccccc1C(F)(F)F)N1CCC(CCCN2CCCC2)(c2cccnc2)CC1` (stereo not shown) [Example 57, 1-[4-Pyridin-3-yl-4-(3-pyrrolidin-1-yl-propyl)-piperidin-1-yl]-4-[1-[[2-(trifluoromethyl)-phenyl]sulfonyl]-piperidin-2-yl]-butan-1-one], for which the inhibition at 10 µM is 70%.
